Reference: US10071989B2, “Substituted cinnamamide derivative, preparation method and use thereof” (TASLY PHARMACEUTICAL GROUP CO., LTD., priority 2011, dated 2018)
“Also recorded” adds a separate entry of the source. Where two headings read alike, the source gives them in different places. Marks after values point to notes of the source that are not given here.

Legend:
Type in all cases: in vivo
C57BL/6 mice [1] = assay: Depression model test of anti-blepharoptosis caused by reserpine (akinesia, blepharoptosis, shell temperature); conditions: for Improving akinesia, blepharoptosis and shell temperature: ranking among the tested compounds (in words): within the experiment; for Degree of eye-closure: score 0-4 one hour after reserpine; for responders at 10 mg/kg: Mus musculus, po, 1 h, one hour after reserpine, 7.5 cm circle, 15-second observation, read-out: “out-of-circle” ratio; for Blepharoptosis, shell temperature and “out-of-circle” ratio compared with Compound I-1 (in words): compared with I-1, p<0.05, p<0.01
Description: 120 male C57BL/6 mice were randomly selected to observe the number of their autonomic activity. The mice was placed into the YLS-1A multi-functional mice autonomic activity recorder, and after 1 min of adaption, the activity of the mice was counted within a time period from the end of 1st min to 4th min. 96 mice with the number of autonomic activity between 70˜140 were screened out, divided randomly into 8 groups, and intragastrically administrated with the drug compounds at a dose listed in Table 3, one time daily for 7 days consecutively. The solvent control group was administrated with 2% Tween-80 aqueous solution in the same volume. Except the normal control group, 30 min after the last administration, each group was injected intraperitoneally with reserpine at a dose of 4 mg/kg. Next, akinesia, blepharoptosis and shell temperature were observed.
I Akinesia: one hour after intraperitoneal injection of reserpine, the mice were placed at the center of a circle with a diameter of 7.5 cm for a 15-second observation to calculate the “out-of-circle” ratio.
II Blepharoptosis: one hour after intraperitoneal injection of reserpine, the eye closure of mice was observed and scored by the following standard: eyelids open, 0; eyelids ¼ closed, 1; eyelids 2/4 closed, 2; eyelids ¾ closed, 3; eyelids closed completely, 4.
III Shell temperature: two hours after intraperitoneal injection of reserpine, the shell temperature of the abdomen of the mice was measured.
120 C57BL/6 mice were randomly selected to observe the number of their autonomic activity. The method was the same with that of Experiment 1. 100 mice with the number of autonomic activity between 70˜140 were screened out, divided randomly into 10 groups, and intragastrically administrated with the drug compounds at a dose listed in Table 4, one time daily for 7 days consecutively. The mice in the normal group and the solvent control group were administrated with 2% Tween-80 aqueous solution in the same volume. Except the normal control group, 30 min after the last administration, each group was injected intraperitoneally with reserpine at a dose of 4 mg/kg. Next, akinesia, blepharoptosis and shell temperature were observed. Observation method was the same with that of Experiment 1.

C57BL/6 mice [2] = assay: Number of autonomic activity of mice (YLS-1A autonomic activity recorder); conditions: for Effect on autonomic activity of mice (in words): 10 mg/kg intragastric, one week, compared with the solvent control group; for Number of Autonomic activity (time): 10 mg/kg intragastric once daily, counted 30 min after administration at 6th day
Description: 110 mice were randomly selected to observe the number of their autonomic activity. The mice was placed into the YLS-1A multi-functional mice autonomic activity recorder, and after 1 min of adaption, the mice's activity was counted within a time period from the end of 1st min to 4th min. 96 mice with the number of autonomic activity between 70˜140 were screened out, divided randomly into 8 groups, and intragastrically administrated with the drug compounds at a dose listed in Table 1, one time daily for 7 days consecutively. The solvent control group was administrated with 2% Tween-80 aqueous solution in the same volume. All mice were placed into the autonomic activity recorder 30 min after administration at 6th day. After 1 min of adaption, the mice's activity was counted within a time period from the end of 1st min to 4th min.
(§1) 130 mice were randomly selected to observe the number of their autonomic activity. The method was the same with that of Experiment 1. 108 mice with the number of autonomic activity between 70˜140 were screened out, divided randomly into 9 groups, and intragastrically administrated with the drug compounds at a dose listed in Table 2, one time daily for 7 days consecutively. The solvent control group was administrated with 2% Tween-80 aqueous solution in the same volume. 30 min after administration at 6th day, the number of the autonomic activity of each mouse was observed. 30 min after administration at 7th day, the immobility time in tail suspension test was observed. The method was the same with that in Experiment 1.

C57BL/6 mice [3] = assay: "Acquired despair" depression model of tail suspension test in mice; conditions: for Effect on immobility time in tail suspension test (in words): 10 mg/kg intragastric for 7 days, compared with the solvent control group
Description: 30 min after administration at 7th day, the mice was fixed on a sustainer with a rubberized cloth at 1 cm close to the end of the tail of mice, making the mice hanged upside down. The head of the mice was about 30 cm above the table and its sight was separated from the neighboring mouse with a plate. Usually, the mice might manage to struggle in hopes of overcoming the abnormal body position. […] The accumulated immobility time within 6 min of each mouse was observed, which was regarded as “despair time”.
as §1

mice = assay: Anti-depression effect in the tested models (overall conclusion); conditions: in the tested model at the tested dose
Text: Based on the aforesaid experiments, the following conclusion can be drawn: • 1.

C57BL/6 mice [4] = assay: Forced swimming experiment in mice; conditions: for Immobility time in the forced swimming test in mice(s): 30 min after last administration, end of 2nd min to 6th min; for Effect on immobility time in the forced swimming test (in words): within the dosage range (5-10 mg/kg), compared with the solvent control group
Description: After 1˜2 days of adaptive feed, 80 male C57BL/6 mice, aged 6˜8 weeks and weighing 18˜22 g, were placed into the YLS-1A multi-functional mice autonomic activity recorder. After 1 min of adaption, the activity of the mice was counted within a time period from the end of 1st min to 4th min. 60 mice with the number of autonomic activity between 70˜140 were screened out, divided randomly into 6 groups, and intragastrically administrated with the drug compounds at a dose listed in Table 5, one time daily for 7 days consecutively. The solvent control group was administrated with 2% Tween-80 aqueous solution in the same volume. After the administration at 6th day, the mice were placed into a cylindrical aquarium with a water depth of 10 cm and 25° C. to force the mice to swim. After 15 min, the mice were taken out, dried and returned to the cage. 24 hours later, 30 min after the last intragastrical administration, the mice were placed into a glass bottle with a diameter of 10 cm, a height of 30 cm and a water depth of 10 cm, and the temperature of the water in the bottle was at 25° C. The mice were separated with an opaque partition, so as not to influence each other. After 2 min of adaption, an accumulated immobility time from the end of 2nd min to 6th min was recorded.

[5] = 10 mg/kg intragastric 7 days, compared with the solvent control group
[6] = 10 mg/kg, compared with I-1, p<0.05
[7] = 10 mg/kg intragastric once daily for 7 days
[8] = 10 mg/kg, compared with the solvent control group
[9] = Experiment 2, 10 mg/kg intragastric 7 days, reserpine 4 mg/kg i.p., abdomen, two hours after reserpine, ±SD
[10] = Experiment 2, 10 mg/kg intragastric 7 days, reserpine 4 mg/kg i.p., ±SD
[11] = Experiment 2, 10 mg/kg intragastric 7 days, reserpine 4 mg/kg i.p.

Row | Structure (SMILES) | Blepharoptosis, “out-of-circle” ratio and shell temperature after reserpine (effect in words) (C57BL/6 mice [1]; [5]) | Degree of eye closure / blepharoptosis after reserpine compared with I-1 (in words) (C57BL/6 mice [1]; 10 mg/kg) | Improving akinesia, blepharoptosis and shell temperature: ranking among the tested compounds (in words) (C57BL/6 mice [1]; 10 mg/kg) | Effect on autonomic activity of mice (in words) (C57BL/6 mice [2]) | Number of Autonomic activity (time) (C57BL/6 mice [2]; Experiment 2) | Effect on immobility time in tail suspension test (in words) (C57BL/6 mice [3]) | Anti-depression effect compared with the pharmacologic effect of I-1 (in words) (mice) | Immobility time in the forced swimming test in mice(s) (C57BL/6 mice [4]; [7]) | Effect on immobility time in the forced swimming test (in words) (C57BL/6 mice [4]) | Change in the shell temperature (T ° C.) (C57BL/6 mice [1]; [9]) [°C] | Degree of eye-closure (C57BL/6 mice [1]; [10]) | responders at 10 mg/kg (C57BL/6 mice [1]; [11]) [%] | Blepharoptosis, shell temperature and “out-of-circle” ratio compared with Compound I-1 (in words) (C57BL/6 mice [1]; 10 mg/kg) | other results
1 | CC(C)CNC(=O)/C=C/c1cc2c(c(C(F)(F)F)c1)OCO2 [Compound I-5, N-isobutyl-5′-trifluoromethyl-3′,4′-methylenedioxy cinnamamide] | improved significantly; also recorded: antagonizing the decrease of shell temperature, akinesia and improving the degree of eye closure | reduced | best effect | had no affect; also recorded: had no effect | 99.40 ± 19.67 | remarkably reduce the immobility time; also recorded: reduce the immobility time of the mice in tail suspension test significantly; also recorded: significantly shorten the immobility time | increased to some degree | 78.58 ± 35.70 | shortening the immobility time; also recorded: shorten the immobility time |  |  |  |  | “out-of-circle” ratio after reserpine compared with I-1 (in words) (C57BL/6 mice [1]; [6]): increased markedly; Change in the shell temperature (ΔT ° C.) (C57BL/6 mice [1]; Experiment 1, 10 mg/kg intragastric 7 days, reserpine 4 mg/kg i.p., abdomen, two hours after reserpine, ±SD): 1.32 ± 0.16 °C; Degree of eye-closure (C57BL/6 mice [1]; Experiment 1, 10 mg/kg intragastric 7 days, reserpine 4 mg/kg i.p., ±SD): 0.42 ± 0.79**^ΔΔ; responders at 10 mg/kg (C57BL/6 mice [1]; Experiment 1, 10 mg/kg intragastric 7 days, reserpine 4 mg/kg i.p.): 92%; Number of Autonomic activity (time) (C57BL/6 mice [2]; Experiment 1, end of 1st min to 4th min): 94.75 ± 23.98 time; Effect on antagonizing immobility in tail suspension test compared with I-1 (in words) (C57BL/6 mice [3]; [6]): better effect; Immobility time in the forced swimming test in mice(s) (C57BL/6 mice [4]; 5 mg/kg (low dose) intragastric once daily for 7 days): 91.20 ± 43.09 s; Dose dependence of the effect on immobility time in the forced swimming test (C57BL/6 mice [4]; 5 and 10 mg/kg): dose-dependent effect
2 | O=C(/C=C/c1cc2c(c(C(F)(F)F)c1)OCO2)N1CCCCC1 [Compound I-10] | antagonizing the decrease of shell temperature, akinesia and improving the degree of eye closure | increased improvement |  | had no effect | 95.30 ± 15.06 | reduce the immobility time of the mice in tail suspension test significantly; also recorded: significantly shorten the immobility time | increased to some degree | 83.07 ± 31.03 | shortening the immobility time; also recorded: shorten the immobility time | 27.15 ± 1.20 | 1.80 ± 1.32 | 30 |  | Blepharoptosis after reserpine (effect in words) (C57BL/6 mice [1]; [8]): improve blepharoptosis of the mice significantly; Shell temperature and “out-of-circle” ratio after reserpine (effect in words) (C57BL/6 mice [1]; [8]): to a certain degree but without statistically significant difference
3 | CC(C)CNC(=O)CCc1cc2c(c(C(F)(F)F)c1)OCO2 [Compound I-11, N-isobutyl-3-(5′-trifluoromethyl-3′,4′-methylenedioxyphenyl)-propionamide] | remarkably improve; also recorded: antagonizing the decrease of shell temperature, akinesia and improving the degree of eye closure |  | better effects | had no effect | 86.60 ± 23.08 | reduce the immobility time of the mice in tail suspension test significantly; also recorded: significantly shorten the immobility time | increased to some degree |  |  | 30.20 ± 0.95 | 1.40 ± 0.97 | 50 | significantly improved effect | 
4 | CC(C)CNC(=O)c1cc2c(c(C(F)(F)F)c1)OCO2 [Compound I-12, N-isobutyl-5-trifluoromethyl-3,4-methylenedioxy benzamide] | remarkably improve; also recorded: antagonizing the decrease of shell temperature, akinesia and improving the degree of eye closure |  | better effects | had no effect | 93.20 ± 19.54 | reduce the immobility time of the mice in tail suspension test significantly; also recorded: significantly shorten the immobility time | increased to some degree |  |  | 30.65 ± 1.16 | 1.50 ± 1.18 | 70 | significantly improved effect | 
